Data taken from article PMC9007940, “Oscillatory calcium release and sustained store-operated oscillatory calcium signaling prevents differentiation of human oligodendrocyte progenitor cells” (Scientific Reports, 2022).

Assays:
[1] = system: T1, muscarinic acetylcholine receptor M3 (M1/3R); assay: GCaMP6s calcium imaging dose-response (AUC) in primary human OPCs, endogenous M1/M3 receptors; assay type: cell-based
T1 construct: gene CHRM3

[2] = molecular target: T2, metabotropic type 5 glutamate receptor (mGluR5) (Homo sapiens, UniProt P41594); assay: GCaMP6s calcium imaging dose-response (AUC) in primary human OPCs, endogenous receptor; assay type: cell-based
T2 construct: gene GRM5
T2 sequence (P41594 21-1212): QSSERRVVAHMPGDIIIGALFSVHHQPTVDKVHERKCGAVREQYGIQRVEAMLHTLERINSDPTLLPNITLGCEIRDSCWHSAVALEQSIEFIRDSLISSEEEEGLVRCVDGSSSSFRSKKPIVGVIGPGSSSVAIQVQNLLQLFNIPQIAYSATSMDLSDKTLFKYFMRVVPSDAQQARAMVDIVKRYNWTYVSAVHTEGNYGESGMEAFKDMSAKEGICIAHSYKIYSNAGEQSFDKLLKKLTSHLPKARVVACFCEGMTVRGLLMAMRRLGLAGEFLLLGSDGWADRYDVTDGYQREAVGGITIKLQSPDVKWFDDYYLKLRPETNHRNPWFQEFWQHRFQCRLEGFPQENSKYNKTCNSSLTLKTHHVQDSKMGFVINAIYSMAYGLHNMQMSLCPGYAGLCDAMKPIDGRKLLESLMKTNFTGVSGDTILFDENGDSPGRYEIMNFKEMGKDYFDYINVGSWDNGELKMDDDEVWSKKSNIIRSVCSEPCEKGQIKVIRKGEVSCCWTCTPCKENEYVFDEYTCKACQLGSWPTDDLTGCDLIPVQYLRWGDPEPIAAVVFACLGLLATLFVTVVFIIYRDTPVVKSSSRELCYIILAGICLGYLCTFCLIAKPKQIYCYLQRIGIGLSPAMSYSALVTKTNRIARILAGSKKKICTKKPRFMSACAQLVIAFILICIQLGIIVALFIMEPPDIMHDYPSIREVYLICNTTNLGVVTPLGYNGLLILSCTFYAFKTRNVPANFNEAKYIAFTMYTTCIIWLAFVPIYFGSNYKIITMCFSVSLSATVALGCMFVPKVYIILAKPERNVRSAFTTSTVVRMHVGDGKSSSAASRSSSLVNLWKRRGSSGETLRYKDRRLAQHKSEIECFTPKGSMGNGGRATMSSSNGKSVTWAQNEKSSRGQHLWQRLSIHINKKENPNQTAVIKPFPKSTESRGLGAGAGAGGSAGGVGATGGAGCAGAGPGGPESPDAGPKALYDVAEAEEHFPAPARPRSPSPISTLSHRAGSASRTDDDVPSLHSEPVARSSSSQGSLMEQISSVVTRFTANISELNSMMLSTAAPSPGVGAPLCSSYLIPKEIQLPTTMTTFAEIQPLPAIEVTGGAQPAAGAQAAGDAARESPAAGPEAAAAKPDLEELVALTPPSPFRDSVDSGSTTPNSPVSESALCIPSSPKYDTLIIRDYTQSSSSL

Row | Compound | EC50 [1] [µM] | EC50 [2] [µM]
1 | C[N+](C)(C)CC#CCN1CCCC1=O [Oxo-M] | 2.2 | 
2 | NC(C(=O)O)c1cc(O)ccc1Cl (centres unmarked) [CHPG] |  | 1300
